Patent publication US4582698A, “Process for imaging cardiac infarcts” (The Dow Chemical Company, priority 1983, dated 1986)
Entries after “also recorded” stand apart in the source; their conditions may differ. Read-outs that look alike come from different tables or passages of the source.

Columns and labels:
damaged cardiac tissue = test: Ratio of activity in damaged vs normal cardiac tissue of rats (Table II); format: in vivo, rat; settings: isoproterenol-damaged rats vs control rats; 60 minutes after injection
Description: The heart was excised, cut open, and blotted. […] Other organs were also dissected and weighed.
Control animals (animals not injected with isoproterenol) were also injected with several ^99m Tc complexes.

infarcts = settings: cited from earlier work
[1] = Tissue distribution of Tc-99m agents in rats with isoproterenol-induced heart damage (Table I); settings: 60 minutes after i.v. (tail vein) injection
Description: (§1) The dosage used was proportional to the weight of the rats (30 mg isoproterenol hydrochloride/kilogram of body weight).
(§2) After five hours, the animals were injected with 50 μl (~1 mCi) of the above radioactive solution via the tail vein. The animals were killed by cervical dislocation 60 minutes after the injection of the technetium complex. The heart was excised, cut open, and blotted. Heart tissue was then washed with isotonic saline solution and weighed. Other organs were also dissected and weighed. The amount of radiation in each tissue was quantitatively determined using a NaI scintillation counter. Fifty μl standards of the complex solution were also counted. […] The levels are expressed as a percent of the original dose of radioactivity which was taken up by the tissue or fluid (blood).

[2] = rat, in vivo, iv, 1 h
Description: as §1, §2

[3] = in vivo; cited from earlier work

## O.O.O=P([O-])([O-])CP(=O)([O-])[O-].[99Tc+4] [Methylenediphosphonate, ^99m Tc-methylenediphosphonate]
Damaged cardiac tissue
  % Dose/gram in Damaged Heart/% Dose/gram in Normal Heart: 20.5
infarcts; in vivo
  accumulation in infarcts: shown to accumulate in infarcts
[1]; blood
  % Dose/g of Tissue (Fluid), Blood: 0.051 % Dose/g
[1]; liver
  % Dose/g of Tissue (Fluid), Liver: 0.060 % Dose/g
[1]; muscle
  % Dose/g of Tissue (Fluid), Muscle: 0.018 % Dose/g

## O=P([O-])([O-])OP(=O)([O-])[O-].[99Tc] [Pyrophosphate, ^99m Tc-pyrophosphate]
Damaged cardiac tissue
  % Dose/gram in Damaged Heart/% Dose/gram in Normal Heart: 21.4
[2]
  % Dose/g of Tissue (Fluid), Blood: 0.182 % Dose/g
  % Dose/g of Tissue (Fluid), Liver: 0.131 % Dose/g
  % Dose/g of Tissue (Fluid), Muscle: 0.026 % Dose/g
infarcts; compared to other ^99m Tc bone seeking agents
  infarct to bone ratio: relatively high
infarcts; in vivo
  detection of recent infarcts: inability to detect recent infarcts
infarcts; ribs and sternum / overlying skeletal structures
  interference from skeletal structures in infarct imaging: less interference from the ribs and sternum; also recorded: interference due to uptake in overlying skeletal structures
[3]
  blood clearance: relatively slow

## ^99m Tc-hydroxyethylenediphosphonate
infarcts; in vivo
  accumulation in infarcts: shown to accumulate in infarcts

## ^99m Tc-glucoheptonate
infarcts; in vivo
  accumulation in infarcts: shown to accumulate in infarcts
